Measured values: ChEMBL document CHEMBL2040817, “Fragment-based discovery of hydroxy-indazole-carboxamides as novel small molecule inhibitors of Hsp90” (Bioorg Med Chem Lett, 2012)

Experiments:
A2780 = experiment: Antiproliferative activity against human A2780 cells after 72 hrs by alamar blue assay; format: functional, cell-based; conditions: A2780, 72 h
[1] = target: T1, Heat shock protein HSP 90-beta (Homo sapiens, UniProt P08238); experiment: Displacement of [3H]17AAG from human recombinant Hsp90 after 30 mins by beta scintillation counting
T1 sequence (P08238 whole entry): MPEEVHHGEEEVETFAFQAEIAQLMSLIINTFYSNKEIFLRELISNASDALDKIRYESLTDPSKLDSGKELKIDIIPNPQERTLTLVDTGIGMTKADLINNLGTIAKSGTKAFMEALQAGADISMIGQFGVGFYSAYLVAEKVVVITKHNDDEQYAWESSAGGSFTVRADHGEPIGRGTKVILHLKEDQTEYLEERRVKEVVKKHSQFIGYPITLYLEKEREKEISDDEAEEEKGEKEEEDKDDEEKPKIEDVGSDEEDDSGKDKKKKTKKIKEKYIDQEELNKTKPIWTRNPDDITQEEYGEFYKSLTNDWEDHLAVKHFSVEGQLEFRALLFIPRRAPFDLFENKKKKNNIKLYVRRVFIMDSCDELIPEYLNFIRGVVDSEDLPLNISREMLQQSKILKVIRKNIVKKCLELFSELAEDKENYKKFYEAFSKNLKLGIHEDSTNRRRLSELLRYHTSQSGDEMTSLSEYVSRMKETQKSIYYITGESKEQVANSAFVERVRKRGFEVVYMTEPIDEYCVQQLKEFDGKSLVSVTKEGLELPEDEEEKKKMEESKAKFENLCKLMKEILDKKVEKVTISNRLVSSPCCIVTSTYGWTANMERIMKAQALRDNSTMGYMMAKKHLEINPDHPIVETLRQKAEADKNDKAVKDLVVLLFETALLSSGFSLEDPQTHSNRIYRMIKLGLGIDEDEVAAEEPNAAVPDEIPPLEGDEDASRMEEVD

[2] = target: T1, Heat shock protein HSP 90-beta; experiment: Inhibition of Hsp90 in human A2780 cells assessed as Hsp70 upregulation after 24 hrs by immunostaining method; format: cell-based
MCF7 = experiment: Antiproliferative activity against human MCF7 cells after 72 hrs by alamar blue assay; format: functional, cell-based; conditions: MCF7, 72 h
PC-3 = experiment: Antiproliferative activity against human PC3 cells after 72 hrs by alamar blue assay; format: functional, cell-based; conditions: PC-3, 72 h
COLO 205 = experiment: Antiproliferative activity against human COLO205 cells after 72 hrs by alamar blue assay; format: functional, cell-based; conditions: COLO 205, 72 h

Compound | IC50 (A2780) | IC50 [1] | further results
COc1cc2[nH]nc(Cc3cccc(C)c3)c2cc1C(=O)N(C)Cc1ccccc1 | – | > 20 µM | –
CN(Cc1ccc(Br)cc1)C(=O)c1cc2c(Cc3ccccc3)n[nH]c2cc1O | 2.8 µM | 1.1 µM | –
COc1cc(CN(C)C(=O)c2cc3c(Cc4ccccc4)n[nH]c3cc2O)ccc1Cl | 4.1 µM | 2.3 µM | –
CN(Cc1ccccc1)C(=O)c1cc2c(Cc3ccccc3Cl)n[nH]c2cc1O | – | 2.6 µM | –
Cc1ccccc1Cc1n[nH]c2cc(O)c(C(=O)N(C)Cc3ccccc3)cc12 | – | 2.4 µM | –
CN(Cc1ccccc1)C(=O)c1cc2c(Cc3cccc(F)c3)n[nH]c2cc1O | 1.7 µM | 1.3 µM | –
Cc1cccc(Cc2n[nH]c3cc(O)c(C(=O)NCc4ccccc4)cc23)c1 | > 10 µM | 1.5 µM | –
Cc1cccc(Cc2n[nH]c3cc(O)c(C(=O)N(C)Cc4ccccc4)cc23)c1 | 0.49 µM | – | –
CCN(Cc1ccccc1)C(=O)c1cc2c(Cc3cccc(C)c3)n[nH]c2cc1O | – | 3 µM | –
COc1cccc(Cc2n[nH]c3cc(O)c(C(=O)N(C)Cc4ccccc4)cc23)c1 | – | 1.4 µM | –
CCc1cccc(Cc2n[nH]c3cc(O)c(C(=O)N(C)Cc4ccccc4)cc23)c1 | – | 1.3 µM | –
CN(Cc1ccccc1)C(=O)c1cc2c(Cc3ccc(Cl)cc3)n[nH]c2cc1O | – | 5.7 µM | –
Cc1ccc(Cc2n[nH]c3cc(O)c(C(=O)N(C)Cc4ccccc4)cc23)cc1 | > 10 µM | 1.3 µM | –
CCc1ccc(Cc2n[nH]c3cc(O)c(C(=O)N(C)Cc4ccccc4)cc23)cc1 | > 10 µM | 2.5 µM | –
Oc1ccc2c(C3CCCC3)n[nH]c2c1 | – | 87 µM | –
Nc1nc(Cl)cc(Cc2ccc(Cl)cc2)n1 | – | 21 µM | –
NC(=O)c1cc2c(Cc3ccccc3)n[nH]c2cc1O | – | 61 µM | –
CCCN(C)C(=O)c1cc2c(Cc3ccccc3)n[nH]c2cc1O | > 10 µM | 1.9 µM | –
CCCCN(C)C(=O)c1cc2c(Cc3ccccc3)n[nH]c2cc1O | 7.6 µM | 1.8 µM | –
COCCN(C)C(=O)c1cc2c(Cc3ccccc3)n[nH]c2cc1O | – | 4 µM | –
CN(Cc1ccccc1Cl)C(=O)c1cc2c(Cc3ccccc3)n[nH]c2cc1O | 1.1 µM | 1.1 µM | –
COc1ccccc1CN(C)C(=O)c1cc2c(Cc3ccccc3)n[nH]c2cc1O | 5.4 µM | 1.7 µM | –
CN(Cc1cccc(Cl)c1)C(=O)c1cc2c(Cc3ccccc3)n[nH]c2cc1O | 5.3 µM | 1.5 µM | –
CN(Cc1cccc(Br)c1)C(=O)c1cc2c(Cc3ccccc3)n[nH]c2cc1O | 7.1 µM | 1.3 µM | –
Cc1cccc(CN(C)C(=O)c2cc3c(Cc4ccccc4)n[nH]c3cc2O)c1 | – | 3.6 µM | –
CN(Cc1cccc(C(F)(F)F)c1)C(=O)c1cc2c(Cc3ccccc3)n[nH]c2cc1O | – | 3.4 µM | –

Further lines, with some results ahead:

IC50 (A2780) | IC50 [1] | Compound | further results
3.7 µM | 0.58 µM | COc1ccc(CN(C)C(=O)c2cc3c(Cc4cccc(C)c4)n[nH]c3cc2O)cc1OC | –
0.31 µM | 0.78 µM | Cc1cccc(Cc2n[nH]c3cc(O)c(C(=O)N(C)Cc4ccccc4Br)cc23)c1 | –
0.44 µM | 0.37 µM | Cc1cccc(Cc2n[nH]c3cc(O)c(C(=O)N(C)Cc4cccc(F)c4)cc23)c1 | –
0.59 µM | 0.58 µM | Cc1cccc(Cc2n[nH]c3cc(O)c(C(=O)N(C)Cc4ccc(F)cc4)cc23)c1 | –
0.54 µM | 0.46 µM | COc1ccc(CN(C)C(=O)c2cc3c(Cc4cccc(C)c4)n[nH]c3cc2O)cc1 | –
0.93 µM | 0.17 µM | Cc1cccc(Cc2n[nH]c3cc(O)c(C(=O)N(C)Cc4ccc(Cl)c(F)c4)cc23)c1 | –
1.6 µM | 0.68 µM | COc1cc(CN(C)C(=O)c2cc3c(Cc4cccc(C)c4)n[nH]c3cc2O)ccc1Cl | –
0.53 µM | 0.5 µM | Cc1cccc(Cc2n[nH]c3cc(O)c(C(=O)N(C)Cc4ccc(F)c(F)c4)cc23)c1 | –
4 µM | 0.2 µM | Cc1cccc(Cc2n[nH]c3cc(O)c(C(=O)N(C)Cc4cccc(NS(C)(=O)=O)c4)cc23)c1 | –
1.6 µM | 0.35 µM | Cc1cccc(Cc2n[nH]c3cc(O)c(C(=O)N(C)Cc4ccc(NS(C)(=O)=O)cc4)cc23)c1 | –
0.71 µM | 0.15 µM | Cc1cccc(Cc2n[nH]c3cc(O)c(C(=O)N(C)Cc4ccc(CNS(C)(=O)=O)cc4)cc23)c1 | IC50 [2]: 1.1 µM; IC50 (MCF7): 4.7 µM; IC50 (PC-3): > 10 µM; IC50 (COLO 205): 3.7 µM
4.1 µM | 1.1 µM | CN(Cc1ccc(F)cc1)C(=O)c1cc2c(Cc3ccccc3)n[nH]c2cc1O | –
2.6 µM | 0.33 µM | CN(Cc1ccc(Cl)cc1)C(=O)c1cc2c(Cc3ccccc3)n[nH]c2cc1O | –
6.9 µM | 0.63 µM | Cc1ccc(CN(C)C(=O)c2cc3c(Cc4ccccc4)n[nH]c3cc2O)cc1 | –
9.4 µM | 0.39 µM | CCc1ccc(CN(C)C(=O)c2cc3c(Cc4ccccc4)n[nH]c3cc2O)cc1 | –
3.2 µM | 0.76 µM | CCOc1ccc(CN(C)C(=O)c2cc3c(Cc4ccccc4)n[nH]c3cc2O)cc1 | –
4.8 µM | 0.47 µM | COc1cccc(CN(C)C(=O)c2cc3c(Cc4ccccc4)n[nH]c3cc2O)c1OC | –
> 10 µM | 0.98 µM | CN(Cc1ccc(Cl)c(F)c1)C(=O)c1cc2c(Cc3ccccc3)n[nH]c2cc1O | –

IC50 (A2780) | IC50 [1] | Compound | further results
0.41 µM | 0.4 µM | CN(Cc1ccccc1)C(=O)c1cc2c(Cc3cccc(Cl)c3)n[nH]c2cc1O | –
0.13 µM | 0.59 µM | CN(Cc1ccccc1Br)C(=O)c1cc2c(Cc3cccc(Cl)c3)n[nH]c2cc1O | –
0.44 µM | 0.71 µM | CN(Cc1cccc(F)c1)C(=O)c1cc2c(Cc3cccc(Cl)c3)n[nH]c2cc1O | –
0.41 µM | 0.8 µM | CN(Cc1ccc(F)cc1)C(=O)c1cc2c(Cc3cccc(Cl)c3)n[nH]c2cc1O | –
0.39 µM | 0.8 µM | COc1ccc(CN(C)C(=O)c2cc3c(Cc4cccc(Cl)c4)n[nH]c3cc2O)cc1 | –
2.4 µM | 0.73 µM | COc1ccc(CN(C)C(=O)c2cc3c(Cc4cccc(Cl)c4)n[nH]c3cc2O)cc1OC | –
3.2 µM | 0.41 µM | CN(Cc1cccc(NS(C)(=O)=O)c1)C(=O)c1cc2c(Cc3cccc(Cl)c3)n[nH]c2cc1O | –
0.57 µM | 0.06 µM | CN(Cc1ccc(CNS(C)(=O)=O)cc1)C(=O)c1cc2c(Cc3cccc(Cl)c3)n[nH]c2cc1O | IC50 [2]: 1 µM; IC50 (MCF7): 3.5 µM; IC50 (PC-3): 4.3 µM; IC50 (COLO 205): 9.5 µM
– | 0.9 µM | Cc1ccc(-c2nc(N)nc3ccc(Cl)cc23)cc1 | –
0.98 µM | 0.66 µM | CN(Cc1ccccc1)C(=O)c1cc2c(Cc3ccccc3)n[nH]c2cc1O | –
2.5 µM | 0.61 µM | CN(C(=O)c1cc2c(Cc3ccccc3)n[nH]c2cc1O)c1ccco1 | –
4.6 µM | 0.23 µM | CN(Cc1ccccc1)C(=O)c1cc2c(CCc3ccccc3)n[nH]c2cc1O | –
1.5 µM | 0.9 µM | CN(Cc1ccccc1F)C(=O)c1cc2c(Cc3ccccc3)n[nH]c2cc1O | –
1.2 µM | 0.61 µM | CN(Cc1ccccc1Br)C(=O)c1cc2c(Cc3ccccc3)n[nH]c2cc1O | –
4.4 µM | 0.74 µM | Cc1ccccc1CN(C)C(=O)c1cc2c(Cc3ccccc3)n[nH]c2cc1O | –
5 µM | 0.57 µM | CN(Cc1cccc(F)c1)C(=O)c1cc2c(Cc3ccccc3)n[nH]c2cc1O | –
3.8 µM | 0.98 µM | COc1cccc(CN(C)C(=O)c2cc3c(Cc4ccccc4)n[nH]c3cc2O)c1 | –
